Patent publication US20040198815A1, “Antimicrobial and anticancer properties of methyl-beta-orcinolcarboxylate from lichen (Everniastrum cirrhatum)” (priority 2003, published 2004)
In brackets after ≈: the same amount, converted by molar mass.

What was measured:
[1] = system: Saccharomyces Cerevisiae ABC 287 (WT); assay: disc diffusion assay, wild type Saccharomyces cerevisiae; format: cell-based; conditions: 80 μg/disc; for zone of inhibition at 80 µg/disc: read-out: Net zone of growth inhibition
Procedure: (§1) The drug resistance property of the mutants was studied by standardized disc diffusion assay (Bauer at al 1966, American Journal of Clinical Pathology 45: 493-496) with slight modifications. The discs were prepared (5 mm diameter made of Whatman #3 filter paper) by impregnating 8 μl of test compound and placing them on pre-inoculated agar surface.
(§2) A disc containing only the solvent was used as the control. A zone of growth inhibition surrounding the disc is indicative of the […] nature of the strains to antibiotics.
(§3) The pure compound isolated was then tested against polyene and azole resistant strains of Candida albicans. […] In another experiment well-defined amphotericin and nystatin resistant strains of Saccharomyces cerevisiae were used in the assay. These strains designated as erg 2 and erg 6 carry mutations in the ergosterol biosynthetic pathway and therefore are unable to synthesize ergosterol which are the binding site of polyene drugs. Therefore absence of erostreol results in polyene resistance.

[2] = system: Candida albicans mutant strain Amph 100R; assay: disc diffusion assay, mutant Amph 100R; format: cell-based; conditions: for zone of inhibition at 80 µg/disc: Candida albicans, read-out: Net zone of growth inhibition
Procedure: (§4) C. albicans was grown to log phase in Sabouraud's dextrose broth (5 ml) for 48 hrs at 37° C. in a shaker at 250 rpm. The cells were pelleted by centrifugation at 5000 rpm at 4° C. and the pellet was dissolved in 5 ml phosphate buffered saline PBS (6.8 pH). The culture was divided in to five groups of 1 ml each in eppendrof tubes.
(§5) Ethyl methane sulfonate (EMS) was added to each of the culture tube @ 0.1% (v/v) and allowed to grow for 40 min. Then the mutagen was completely washed off thrice by repeatedly pelleting the cells and re-dissolving in PBS. The mutagenized stocks was then diluted in Sabouraud's dextrose broth two folds and allowed to grow for 6 hrs at 37° C. in a shaker at 250 rpm. Titre of the cells before treatment with EMS and immediately after treatment with EMS was calculated to obtain the killing percentage in each of the five tubes. The mutagenized and fixed cultures were then plated in Sabouraud's dextrose agar containing different concentration of amphotericin, nystatin and clotrimazole.
(§6) The colonies found growing after 5th day from each of the five mutagenized stocks were then purified thrice separately by streaking in the same medium containing the antibiotics.

[3] = system: Saccharomyces cerevisiae erg 2 (amphotericin and nystatin resistant); assay: disc diffusion assay, S. cerevisiae erg 2; conditions: 80 μg/disc
Procedure: as §1, §2, §3

[4] = system: Candida albicans MTCC 1637 (Wild Type); assay: disc diffusion assay, wild type Candida albicans; format: cell-based; conditions: for zone of inhibition at 80 µg/disc: MTCC1637, read-out: Net zone of growth inhibition
Procedure: as §1, §2

[5] = system: Candida albicans mutant strain NYS 4R; assay: microbe, parasite or virus in culture; format: cell-based
Procedure: as §4, §5, §6

[6] = system: Candida albicans mutant strain Clo 28R; assay: microbe, parasite or virus in culture; format: cell-based
Procedure: as §4, §5, §6

[7] = system: Candida albicans mutant strain Clo 31R; assay: microbe, parasite or virus in culture; format: cell-based
Procedure: as §4, §5, §6

[8] = system: Candida albicans mutant strain NYS 26R; assay: microbe, parasite or virus in culture; format: cell-based
Procedure: as §4, §5, §6

[9] = system: Saccharomyces cerevisiae erg 6 (amphotericin and nystatin resistant); conditions: 80 μg/disc
Procedure: as §1, §2, §3

[10] = system: Candida albicans mutant strain Amph C6R; assay: microbe, parasite or virus in culture; format: cell-based
Procedure: as §4, §5, §6

[11] = system: Candida albicans mutant strain Amph C7R; assay: microbe, parasite or virus in culture; format: cell-based
Procedure: as §4, §5, §6

[12] = system: Candida albicans mutant strain Amph D1R; assay: microbe, parasite or virus in culture; format: cell-based
Procedure: as §4, §5, §6

[13] = system: Candida albicans mutant strain Amph A8R; assay: microbe, parasite or virus in culture; format: cell-based
Procedure: as §4, §5, §6

[14] = system: polyene and azole resistant strains of Candida albicans; format: cell-based
Procedure: Ethanol extract was prepared and tested against Candida albicans MTCC 1637 (equivalent to ATCC 18804) the fungi that cause different forms of candidiasis in humans and drug resistant mutants of the fungi.

[15] = system: oral (KB 403) cancer cell line; assay: MTT cytotoxicity testing in vitro, KB 403; format: cell-based; conditions: Homo sapiens, KB403, 6 h exposure then 48 h
Procedure: (§7) Cytotoxicity testing in vitro was done by the method of Woerdenbag et al.,1993; J.Nat.Prod. 56 (6): 849-856). 2×10^3 cells/well were incubated in the 5% CO2 incubator for 24 h to enable them to adhere properly to the 96 well polysterene microplate (Grenier, Germany). Test compounds dissolved in 100% DMSO (Merck, Germany) in at least five doses were added and left for 6 h after which the compound plus media was replaced with fresh media and the cells were incubated for another 48 h in the CO2 incubator at 37° C. […] Sigma M 2128] was added, and plates were incubated at 37° C. for 4 h. 100 μl dimethyl sulfoxide (DMSO, Merck, Germany) were added to all wells and mixed thoroughly to dissolve the dark blue crystals. After a few minutes at mom temperature to ensure that all is crystals were dissolved, the plates were read on a SpectraMax 190 Mcroplate Elisa reader (Molecular Devices Inc., USA), at 570 nm. Plates were normally read within 1 h of adding the DMSO.

[16] = system: polyene drug resistant Saccharomyces cerevisiae; assay: activity against polyene resistant S. cerevisiae (as a group); format: cell-based; conditions: erg 2 and erg 6 strains
From the text: Therefore absence of erostreol results in polyene resistance.

Saccharomyces cerevisiae = conditions: Caccamese et al (1985); cited from earlier work
[17] = system: liver (WRL-68) cancer cell line; assay: MTT cytotoxicity testing in vitro, WRL-68; format: cell-based; conditions: Homo sapiens, WRL68, 6 h exposure then 48 h
Procedure: as §7

(MCF-7) cancer cell line = assay: MTT cytotoxicity testing in vitro, MCF-7; format: cell-based; conditions: Homo sapiens, MCF7, 6 h exposure then 48 h
Procedure: as §7

[18] = system: ovarian (MCF-7) cancer cell line; assay: MTT cytotoxicity testing in vitro, MCF-7; format: cell-based; conditions: Homo sapiens, MCF7, 6 h exposure then 48 h
Procedure: as §7

[19] = system: ovarian (PA-1) cancer cell line; assay: MTT cytotoxicity testing in vitro, PA-1; format: cell-based; conditions: Homo sapiens, 6 h exposure then 48 h
Procedure: as §7

[20] = in-vitro ergosterol binding assay
From the text: Therefore, the ability of lichen compounds to bind to ergosterol was also investigated using in-vitro ergosterol binding assay (Antonio & Molinski 1993; J.Natl.Prod.56:54-61).

[21] = system: colon (Caco-2) cancer cell line; assay: MTT cytotoxicity testing in vitro, Caco-2; format: cell-based; conditions: Homo sapiens, Caco2, 6 h exposure then 48 h
Procedure: Cytotoxicity testing in vitro was done by the method of Woerdenbag et al.,1993; J.Nat.Prod. […] 2×10^3 cells/well were incubated in the 5% CO2 incubator for 24 h to enable them to adhere properly to the 96 well polysterene microplate (Grenier, Germany). […] Then, 10 μl MTT [3-(4,5-dimethylthiazol-2-yl)-2,5-diphenyltetrazolium bromide; Sigma M 2128] was added, and plates were incubated at 37° C. for 4 h. 100 μl dimethyl sulfoxide (DMSO, Merck, Germany) were added to all wells and mixed thoroughly to dissolve the dark blue crystals. […] Plates were normally read within 1 h of adding the DMSO.

[22] = Candida albicans MTCC (Wild Type), 80 μg/disc
[23] = Candida albicans, read-out: Net zone of growth inhibition

## C[C@@H]1[C@H](O)[C@@H](C)/C=C/C=C/C=C/C=C/C=C/C=C/C=C/[C@H](O[C@@H]2O[C@H](C)[C@@H](O)[C@H](N)[C@@H]2O)C[C@@H]2O[C@](O)(C[C@@H](O)C[C@@H](O)[C@H](O)CC[C@@H](O)C[C@@H](O)CC(=O)O[C@H]1C)C[C@H](O)[C@H]2C(=O)O [Amphotericin]
[1]
  zone of inhibition at 80 µg/disc: 8 mm
[2]
  zone of inhibition at 80 µg/disc: 2 mm
[3]
  Net zone of growth inhibition: 6 mm
[4]; [22]
  zone of inhibition at 80 µg/disc: 9 mm
[5]; [23]
  zone of inhibition at 80 µg/disc: 2 mm
[6]; [23]
  zone of inhibition at 80 µg/disc: 12 mm
[7]; [23]
  zone of inhibition at 80 µg/disc: 6 mm
[8]; [23]
  zone of inhibition at 80 µg/disc: 4 mm
[9]
  Net zone of growth inhibition: 5 mm

## Clc1ccccc1C(c1ccccc1)(c1ccccc1)n1ccnc1 [Clotrimazole, reference compound]
[2]
  zone of inhibition at 80 µg/disc: 25 mm
[4]; [22]
  zone of inhibition at 80 µg/disc: 17 mm
[5]; [23]
  zone of inhibition at 80 µg/disc: 20 mm
[10]; [23]
  zone of inhibition at 80 µg/disc: 10 mm
[11]; [23]
  zone of inhibition at 80 µg/disc: 12 mm
[6]; [23]
  zone of inhibition at 80 µg/disc: 14 mm
[12]; [23]
  zone of inhibition at 80 µg/disc: 27 mm
[13]; [23]
  zone of inhibition at 80 µg/disc: 22 mm
[7]; [23]
  zone of inhibition at 80 µg/disc: 11 mm
[8]; [23]
  zone of inhibition at 80 µg/disc: 19 mm

## COC(=O)c1c(C)cc(O)c(C)c1O [Methyl-β-orcinolcarboxylate, methyl-β-orcinolcarboxylate]
[14]
  activity against drug resistant strains of C. albicans (in words): able to inhibit the growth of drug resistant strains in a dose dependant manner
[1]
  zone of inhibition at 80 µg/disc: 2 mm
[15]
  IC50: 0.04 mg/L (≈ 0.204 µM)
  IC90: 4.5 mg/L (≈ 22.9 µM)
[3]
  Net zone of growth inhibition: 6 mm
[16]
  growth inhibition of polyene drug resistant Saccharomyces cerevisiae (in words): able to specifically inhibit the growth
Saccharomyces cerevisiae
  growth inhibition of yeast strains such as Saccharomyces cerevisiae (in words): inhibit the growth
[17]
  IC50: 1 mg/L (≈ 5.1 µM)
  IC90: 5 mg/L (≈ 25.5 µM)
[4]; wild type Candida albicans
  growth inhibition of the wild type strain (in words): inactive
[5]; [23]
  zone of inhibition at 40 µg/disc: 2 mm
  zone of inhibition at 80 µg/disc: 7 mm
  zone of inhibition at 320 µg/disc: 8 mm
[10]; [23]
  zone of inhibition at 40 µg/disc: 2 mm
  zone of inhibition at 80 µg/disc: 4 mm
  zone of inhibition at 320 µg/disc: 5 mm
[11]; [23]
  zone of inhibition at 40 µg/disc: 2 mm
  zone of inhibition at 80 µg/disc: 5 mm
  zone of inhibition at 320 µg/disc: 7 mm
[6]; [23]
  zone of inhibition at 80 µg/disc: 4 mm
  zone of inhibition at 320 µg/disc: 6 mm
[12]; [23]
  zone of inhibition at 80 µg/disc: 4 mm
  zone of inhibition at 320 µg/disc: 6 mm
[13]; [23]
  zone of inhibition at 40 µg/disc: 1 mm
  zone of inhibition at 80 µg/disc: 2 mm
  zone of inhibition at 320 µg/disc: 4 mm
[7]; [23]
  zone of inhibition at 80 µg/disc: 3 mm
  zone of inhibition at 320 µg/disc: 4 mm
[8]; [23]
  zone of inhibition at 40 µg/disc: 2 mm
  zone of inhibition at 80 µg/disc: 6 mm
  zone of inhibition at 320 µg/disc: 8 mm
(MCF-7) cancer cell line
  IC50: 1 mg/L (≈ 5.1 µM)
[18]
  IC90: 5.5 mg/L (≈ 28 µM)
[19]
  IC50: 0.025 mg/L (≈ 0.127 µM)
  IC90: 4 mg/L (≈ 20.4 µM)
[9]
  Net zone of growth inhibition: 6 mm
[20]
  ergosterol-binding property: does not possess ergosterol-binding property
[21]
  IC50: 1.5 mg/L (≈ 7.65 µM)
  IC90: 3.5 mg/L (≈ 17.8 µM)

## C[C@@H]1[C@H](O)[C@@H](C)/C=C/C=C/CC/C=C/C=C/C=C/C=C/C(O[C@H]2O[C@H](C)[C@@H](O)[C@H](N)[C@@H]2O)CC2O[C@](O)(CC(O)C(O)CCC(O)CC(O)CC(O)CC(=O)O[C@H]1C)CC(O)C2C(=O)O (some centres unmarked) [Nystatin]
[1]
  Net zone of growth inhibition: 23 mm
[2]; Amph 100R, 80 μg/disc
  Net zone of growth inhibition: 13 mm
[3]
  Net zone of growth inhibition: 16 mm
[4]; [22]
  Net zone of growth inhibition: 22 mm
[5]; NYS 4R, 80 μg/disc
  Net zone of growth inhibition: 8 mm
[10]; Amph C6R, 80 μg/disc
  Net zone of growth inhibition: 4 mm
[11]; Amph C7R, 80 μg/disc
  Net zone of growth inhibition: 2 mm
[6]; Clo 28R, 80 μg/disc
  Net zone of growth inhibition: 21 mm
[12]; Amph D1R, 80 μg/disc
  Net zone of growth inhibition: 4 mm
[13]; Amph A8R, 80 μg/disc
  Net zone of growth inhibition: 3 mm
[7]; Clo 31R, 80 μg/disc
  Net zone of growth inhibition: 17 mm
[8]; NYS 26R, 80 μg/disc
  Net zone of growth inhibition: 9 mm
[9]
  Net zone of growth inhibition: 13 mm
